Assay results: ChEMBL document CHEMBL4308854, “Novel indole-thiazolidinone conjugates: Design, synthesis and whole-cell phenotypic evaluation as a novel class of antimicrobial agents” (Eur J Med Chem, 2018)
Converted amounts (≈) assume the structure as drawn. The source made the active and inactive calls. The calls are words filed in the database; no cut-off is given here.

Tests used:
[1] = system: Mycobacterium tuberculosis; assay: Antitubercular activity against Mycobacterium tuberculosis RCMB 010126 clinical isolate after 4 days by microplate alamar blue assay; type: functional; settings: for MIC: Mycobacterium tuberculosis, RCMB 010126, 96 h
Staphylococcus aureus [2] = assay: Antibacterial activity against Staphylococcus aureus RCMB 010028 assessed as diameter of zone inhibition after 24 hrs by agar well diffusion assay; type: functional
Pseudomonas aeruginosa [3] = assay: Antibacterial activity against Pseudomonas aeruginosa RCMB 010043 assessed as diameter of zone inhibition after 24 hrs by agar well diffusion assay; type: functional
Escherichia coli [4] = assay: Antibacterial activity against Escherichia coli RCMB 010052 assessed as diameter of zone inhibition after 24 hrs by agar well diffusion assay; type: functional
Aspergillus fumigatus [5] = assay: Antifungal activity against Aspergillus fumigatus RCMB 02568 assessed as diameter of zone inhibition after 48 hrs by agar well diffusion assay; type: functional
Candida albicans [6] = assay: Antifungal activity against Candida albicans RCMB 05036 assessed as diameter of zone inhibition after 48 hrs by agar well diffusion assay; type: functional
Aspergillus fumigatus [7] = assay: Antifungal activity against Aspergillus fumigatus RCMB 02568 after 24 hrs by serial dilution method; type: functional; settings: RCMB 02568, 24 h
Candida albicans [8] = assay: Antifungal activity against Candida albicans RCMB 05036 after 24 hrs by serial dilution method; type: functional; settings: RCMB 05036, 24 h
Staphylococcus aureus [9] = assay: Antibacterial activity against Staphylococcus aureus RCMB 010028 after 24 hrs by serial dilution method; type: functional; settings: RCMB 010028, 24 h
Pseudomonas aeruginosa [10] = assay: Antibacterial activity against Pseudomonas aeruginosa RCMB 010043 after 24 hrs by serial dilution method; type: functional; settings: RCMB 010043, 24 h
Escherichia coli [11] = assay: Antibacterial activity against Escherichia coli RCMB 010052 after 24 hrs by serial dilution method; type: functional; settings: RCMB 010052, 24 h
Mycolicibacterium aurum = assay: Antitubercular activity against Mycobacterium aurum infected in mouse RAW264.7 cells measured after 48 hrs; type: functional
[12] = Cytotoxicity against mouse RAW264.7 cells; type: cell-based
[13] = Selectivity index, ratio of GI50 for mouse RAW264.7 cells to MIC for Mycobacterium aurum infected in mouse RAW264.7 cells; type: toxicity, cell-based; settings: read-out: Selectivity Index
[14] = system: Mycobacterium tuberculosis; assay: Potency index, ratio of isoniazid MIC to compound MIC for antitubercular activity against Mycobacterium tuberculosis RCMB 010126 clinical isolate; type: functional
Staphylococcus aureus [15] = assay: Potency index, ratio of ciprofloxacin MIC to compound MIC for Staphylococcus aureus RCMB 010028; type: functional
Pseudomonas aeruginosa [16] = assay: Potency index, ratio of ciprofloxacin MIC to compound MIC for Pseudomonas aeruginosa RCMB 010043; type: functional
Escherichia coli [17] = assay: Potency index, ratio of ciprofloxacin MIC to compound MIC for Escherichia coli RCMB 010052; type: functional
[18] = Stability in mouse RAW264.7 cells measured after 48 hrs; type: ADME, cell-based; settings: raw264.7, 48 h

Structure (SMILES)	MIC [1]	diameter of the inhibition zone (DIZ) (Staphylococcus aureus [2])	diameter of the inhibition zone (DIZ) (Pseudomonas aeruginosa [3])	diameter of the inhibition zone (DIZ) (Escherichia coli [4])	diameter of the inhibition zone (DIZ) (Aspergillus fumigatus [5])	diameter of the inhibition zone (DIZ) (Candida albicans [6])	inhibition (INH) [1]	MIC (Aspergillus fumigatus [7])	MIC (Candida albicans [8])	MIC (Staphylococcus aureus [9])	MIC (Pseudomonas aeruginosa [10])	MIC (Escherichia coli [11])	other results
NNC(=O)c1ccncc1 [ISONIAZID]	0.78 µg/mL (≈ 5.69 µM)												
CCOC(=O)c1sc(/N=C2\NC(=O)/C(=C/c3cn(C)c4ccccc34)S2)nc1C		inactive	inactive	inactive	inactive	inactive							inhibition [1]: inactive
CCOC(=O)c1sc(/N=C2\NC(=O)/C(=C/c3cn(Cc4ccccc4)c4ccccc34)S2)nc1C		inactive	inactive	inactive	inactive	inactive							inhibition [1]: inactive
CC(=O)c1sc(/N=C2\NC(=O)/C(=C3/C(=O)Nc4ccc(OC(F)(F)F)cc43)S2)nc1C	12.5 µg/mL (≈ 26.6 µM)	14.3 mm	13.9 mm	14.2 mm	15.6 mm	16.2 mm	41.58%						
C[C@@H]1[C@H](O)[C@@H](C)/C=C/C=C/C=C/C=C/C=C/C=C/C=C/[C@H](O[C@@H]2O[C@H](C)[C@@H](O)[C@H](N)[C@@H]2O)C[C@@H]2O[C@](O)(C[C@@H](O)C[C@@H](O)[C@H](O)CC[C@@H](O)C[C@@H](O)CC(=O)O[C@H]1C)C[C@H](O)[C@H]2C(=O)O [AMPHOTERICIN B]					23.7 mm	25.4 mm		1.95 µg/mL (≈ 2.11 µM)	0.98 µg/mL (≈ 1.06 µM)				
CCOC(=O)c1sc(/N=C2\NC(=O)/C(=C3/C(=O)Nc4ccc(F)cc43)S2)nc1C	1.56 µg/mL (≈ 3.61 µM)	20.5 mm	20.2 mm	21.5 mm	21.3 mm	22.1 mm	62.15%	1.95 µg/mL (≈ 4.51 µM)	1.95 µg/mL (≈ 4.51 µM)	3.9 µg/mL (≈ 9.02 µM)	3.9 µg/mL (≈ 9.02 µM)	1.95 µg/mL (≈ 4.51 µM)	
CCOC(=O)c1sc(/N=C2\NC(=O)/C(=C3/C(=O)Nc4ccc(OC)cc43)S2)nc1C	0.39 µg/mL (≈ 0.877 µM)	22.7 mm	22.1 mm	22.6 mm	22.1 mm	23.3 mm	84.35%	1.95 µg/mL (≈ 4.39 µM)	0.98 µg/mL (≈ 2.2 µM)	0.98 µg/mL (≈ 2.2 µM)	1.95 µg/mL (≈ 4.39 µM)	0.98 µg/mL (≈ 2.2 µM)	MIC (Mycolicibacterium aurum): > 200 µg/mL; GI50 [12]: > 62.5 µg/mL; selectivity ratio [13]: < 0.312; Ratio [14]: 2; Ratio (Staphylococcus aureus [15]): 2; Ratio (Pseudomonas aeruginosa [16]): 2; Ratio (Escherichia coli [17]): 2; Stability [18]: Stable
CCOC(=O)c1sc(/N=C2\NC(=O)/C(=C3/C(=O)N(C)c4ccc(Cl)cc43)S2)nc1C	0.78 µg/mL (≈ 1.68 µM)	21.4 mm	21.5 mm	22.3 mm	20.8 mm	21.3 mm	68.31%	3.9 µg/mL (≈ 8.42 µM)	1.95 µg/mL (≈ 4.21 µM)	1.95 µg/mL (≈ 4.21 µM)	1.95 µg/mL (≈ 4.21 µM)	0.98 µg/mL (≈ 2.12 µM)	Ratio (Pseudomonas aeruginosa [16]): 2; Ratio (Escherichia coli [17]): 2
CC(=O)c1sc(/N=C2\NC(=O)/C(=C/c3cn(C)c4ccccc34)S2)nc1C		15.3 mm	14.2 mm	15.9 mm	16.2 mm	16.9 mm	34.32%						
CCOC(=O)c1sc(/N=C2\NC(=O)/C(=C3/C(=O)Nc4ccc(Br)cc43)S2)nc1C	1.56 µg/mL (≈ 3.16 µM)	20.1 mm	19.4 mm	21.1 mm	20.6 mm	21.3 mm	86.31%	3.9 µg/mL (≈ 7.9 µM)	1.95 µg/mL (≈ 3.95 µM)	3.9 µg/mL (≈ 7.9 µM)	3.9 µg/mL (≈ 7.9 µM)	1.95 µg/mL (≈ 3.95 µM)	
CC(=O)c1sc(/N=C2\NC(=O)/C(=C3/C(=O)Nc4ccc(F)cc43)S2)nc1C	12.5 µg/mL (≈ 31 µM)	18.6 mm	19.1 mm	20.6 mm	18.1 mm	19.1 mm	43.26%						
CC(=O)c1sc(/N=C2\NC(=O)/C(=C3/C(=O)Nc4ccccc43)S2)nc1C	1.56 µg/mL (≈ 4.06 µM)	20.3 mm	19.9 mm	22.8 mm	21.5 mm	22.7 mm	63.24%	1.95 µg/mL (≈ 5.07 µM)	0.98 µg/mL (≈ 2.55 µM)	3.9 µg/mL (≈ 10.1 µM)	3.9 µg/mL (≈ 10.1 µM)	0.98 µg/mL (≈ 2.55 µM)	Ratio (Escherichia coli [17]): 2
CC(=O)c1sc(/N=C2\NC(=O)/C(=C/c3cn(Cc4ccccc4)c4ccccc34)S2)nc1C	1.56 µg/mL (≈ 3.3 µM)	20.6 mm	17.3 mm	20.3 mm	20.3 mm	16.2 mm	56.35%	3.9 µg/mL (≈ 8.25 µM)	31.2 µg/mL (≈ 66.1 µM)	1.95 µg/mL (≈ 4.13 µM)	15.6 µg/mL (≈ 33.1 µM)	3.9 µg/mL (≈ 8.25 µM)	
CC(=O)c1sc(/N=C2\NC(=O)/C(=C3/C(=O)N(Cc4ccccc4)c4ccccc43)S2)nc1C	1.56 µg/mL (≈ 3.29 µM)	21.2 mm	20.3 mm	23.4 mm	21.7 mm	22.5 mm	58.34%	1.95 µg/mL (≈ 4.11 µM)	0.98 µg/mL (≈ 2.07 µM)	1.95 µg/mL (≈ 4.11 µM)	3.9 µg/mL (≈ 8.22 µM)	0.98 µg/mL (≈ 2.07 µM)	Ratio (Escherichia coli [17]): 2
CC(=O)c1sc(/N=C2\NC(=O)/C(=C3/C(=O)Nc4ccc(Br)cc43)S2)nc1C	12.5 µg/mL (≈ 26.9 µM)	18.5 mm	18.6 mm	20.4 mm	17.6 mm	18.8 mm	43.21%						
COc1ccc2c(c1)/C(=C1/S/C(=N/c3nc(C)c(C(C)=O)s3)NC1=O)C(=O)N2	1.56 µg/mL (≈ 3.76 µM)	21.7 mm	21.4 mm	22.4 mm	20.8 mm	21.3 mm	64.35%	1.95 µg/mL (≈ 4.7 µM)	1.95 µg/mL (≈ 4.7 µM)	1.95 µg/mL (≈ 4.7 µM)	1.95 µg/mL (≈ 4.7 µM)	1.95 µg/mL (≈ 4.7 µM)	Ratio (Pseudomonas aeruginosa [16]): 2
CCOC(=O)c1sc(/N=C2\NC(=O)/C(=C/c3c[nH]c4ccccc34)S2)nc1C	6.24 µg/mL (≈ 15.1 µM)	18.9 mm	18.5 mm	21.3 mm	20.3 mm	20.9 mm	46.35%	3.9 µg/mL (≈ 9.45 µM)	1.95 µg/mL (≈ 4.73 µM)	3.9 µg/mL (≈ 9.45 µM)	7.81 µg/mL (≈ 18.9 µM)	1.95 µg/mL (≈ 4.73 µM)	
CCOC(=O)c1sc(/N=C2\NC(=O)/C(=C3/C(=O)N(C)c4ccccc43)S2)nc1C	0.39 µg/mL (≈ 0.91 µM)	21.8 mm	21.5 mm	21.5 mm	21.6 mm	22.4 mm	76.35%	1.95 µg/mL (≈ 4.55 µM)	0.98 µg/mL (≈ 2.29 µM)	1.95 µg/mL (≈ 4.55 µM)	1.95 µg/mL (≈ 4.55 µM)	1.95 µg/mL (≈ 4.55 µM)	MIC (Mycolicibacterium aurum): 200 µg/mL (≈ 467 µM); GI50 [12]: 500 µg/mL (≈ 1170 µM); selectivity ratio [13]: 2.5; Ratio (Pseudomonas aeruginosa [16]): 2; Stability [18]: Stable
CC(=O)c1sc(/N=C2\NC(=O)/C(=C/c3c[nH]c4ccccc34)S2)nc1C	3.12 µg/mL (≈ 8.16 µM)	18.9 mm	18.5 mm	21.3 mm	20.3 mm	20.9 mm	52.41%	3.9 µg/mL (≈ 10.2 µM)	1.95 µg/mL (≈ 5.1 µM)	7.81 µg/mL (≈ 20.4 µM)	7.81 µg/mL (≈ 20.4 µM)	1.95 µg/mL (≈ 5.1 µM)	
